US20220146526A1, “METHOD FOR EVALUATING SAMPLE, ANALYSIS METHOD, METHOD FOR DETECTING DEGRADED SAMPLE, MARKER FOR DETECTING DEGRADED BLOOD PLASMA SAMPLE, AND MARKER FOR DETECTING DEGRADED SERUM SAMPLE” (SHIMADZU CORPORATION, priority 2019, published 2022)
Values belong to the molecule of their own block, whether it stands above or below them.

Assays:
Assay type in all cases: physicochemical, human
[1] = LC/MS of blood plasma sample: time from blood collection to centrifugation (Table D); conditions: blood collection to centrifugation
Procedure: (§1) At room temperature, 5 mL of blood from a healthy subject was taken into a blood-collecting vessel containing EDTA, and the blood-collecting vessel was inverted for mixing, then cooled, and allowed to stand at 4° C. Here, in order to investigate how the detection intensity of molecules contained in the sample was affected in a case where the time to cooling was set to 5 minutes or more as compared to that in a case where the time to cooling was set to 1 minute or less, preparations were performed under both the former condition and the latter condition. After standing, the blood sample was subjected to centrifugation under a condition of 4° C., 3000 rpm, and 15 minutes. […] After centrifugation, the blood-collecting vessel was left to stand at room temperature for 30 minutes, and the blood plasma was isolated during this 30 minutes. The obtained blood plasma sample was frozen and stored. Here, in order to investigate how the detection intensity of molecules contained in the sample was affected in cases where freezing and thawing was performed 4 times, 6 times, and 10 times after freezing as compared to that in a case where freezing and thawing was performed 2 times after freezing, freezing and thawing was performed under the respective conditions of 2, 4, 6, and 10 times.
(§2) Frozen blood plasma samples and serum samples were subjected to GC/MS or LC/MS. In GC/MS, the blood plasma samples and serum samples were subjected to methoxymation and trimethylsilylation and then introduced to GC-MS.
(§3) Analysis column: Discovery HS F5-3 (inner diameter of 2.1 mm, length of 150 mm, film thickness of 3 μm) (Sigma-Aldrich)
(§4) Column temperature: 40° C.
(§5) (A) 0.1% formic acid (dissolved in water)
(§6) (B) 0.1% formic acid (dissolved in acetonitrile)
(§7) Flow velocity: 0.25 mL/min
(§8) Ionization method: electrospray
(§9) Temperature: • Desolvation Line (DL) temperature: 250° C. • Heat block temperature: 400° C. • Interface temperature: 300° C.
(§10) Gas flow rate: • Nebulizer gas flow rate: 3.0 L/min • Drying gas flow rate: 10.0 L/min • Heating gas flow rate: 10.0 L/min
(§11) Mode: multiple reaction monitoring (MRM)
The rate of increase or decrease in Table D is the value of detection intensity relative to 1 that is the detection intensity in a case where the time from blood collection to centrifugation is set to 15 minutes.

[2] = LC/MS of blood plasma sample: number of times of freezing and thawing (Table F); conditions: for Rate of increase or decrease: detection intensity relative to 1 at 2 times; for Increase or decrease: detection intensity
Procedure: as §1, §2, §3, §4, §5, §6, §7, §8, §9, §10, §11
The rate of increase or decrease in Table F is the value of detection intensity relative to 1 that is the detection intensity in a case where the number of times of freezing and thawing is set to 2 times.

[3] = GC/MS of blood plasma sample: time from blood collection to centrifugation (Table A); conditions: blood collection to centrifugation; for Rate of increase or decrease: detection intensity relative to 1 at 15 minutes, after 4 hours; for Increase or decrease: detection intensity, after 4 hours vs 15 minutes
Procedure: as §1, §2
(§12) GC/MS was conducted using GCMS·TQ8040 (Shimadzu Corporation) that was a GC·MS equipped with AOC·20i (Shimadzu Corporation) as an autosampler.
(§13) Column: BPX5 (inner diameter of 0.25 mm, length of 30 m, and film thickness of 0.25 μm) (SGE)
(§14) Column temperature: maintained at 60° C. for 2 minutes, then raised at 15° C./min, and maintained at 330° C. for 3 minutes.
(§15) Inlet temperature: 250° C.
(§16) Carrier gas control mode: constant linear velocity of 39.0 cm/sec
(§17) Sample introduction method: split (split ratio of 30:1) Injection volume: 1 μL
(§18) Ionization method: electron ionization
(§19) Ionization current: 60 μA
(§20) Interface temperature: 280° C.
(§21) Ion source temperature: 200° C.
as §11
The rate of increase or decrease in Table A is the value of detection intensity relative to 1 that is the detection intensity in a case where the time from blood collection to centrifugation is set to 15 minutes.

[4] = GC/MS of blood plasma sample: number of times of freezing and thawing (Table C); conditions: for Increase or decrease: detection intensity; for Rate of increase or decrease (second value, decrease) / Rate of increase or decrease (first value, increase): different from individual to individual, relative to 1 at 2 times, freezing and thawing 6 times; for Rate of increase or decrease (second value, decrease): individuals with decrease; for Rate of increase or decrease (first value, increase): individuals with increase
Procedure: as §1, §2, §12, §13, §14, §15, §16, §17, §18, §19, §20, §21, §11
The rate of increase or decrease in Table C is the value of detection intensity relative to 1 that is the detection intensity in a case where the number of times of freezing and thawing is set to 2 times.

[5] = GC/MS of serum sample: time from blood collection to centrifugation (Table G); conditions: blood collection to centrifugation; for Increase or decrease: detection intensity
How it was run: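 Values express detection intensity as a ratio to the sample centrifuged 15 minutes after blood collection (taken as 1). Serum was derivatized by methoxymation and trimethylsilylation, then analysed by electron-ionization GC/MS using multiple reaction monitoring on a BPX5 column ramped from 60 to 330° C.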

[6] = GC/MS of serum sample: time from centrifugation to isolation (Table H); parameters: key to Rate of increase or decrease / Rate of increase or decrease (first value, increase): detection intensity relative to 1 at 30 min centrifugation-to-isolation; conditions: for Rate of increase or decrease: detection intensity relative to 1 at 30 minutes, after 1 hour; for Increase or decrease: detection intensity, after 1 hour vs 30 minutes
How it was run: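 Values are GC/MS (EI, MRM) detection intensities of methoxymated/trimethylsilylated serum, normalised to 1 for the 30-min sample. Serum was isolated 30 min, 1 h or 6 h after room-temperature centrifugation (3500 rpm, 5 min) of blood.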

[7] = GC/MS of serum sample: number of times of freezing and thawing (Table I); parameters: key to Rate of increase or decrease / Rate of increase or decrease (first value, increase): detection intensity relative to 2 freeze-thaw cycles = 1; conditions: serum, GC/MS; for Increase or decrease: detection intensity
How it was run: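 Detection intensities are ratios to the value after two freeze–thaw cycles, which is set as 1, compared against 4, 6 and 10 cycles. Analysis used methoxymation and trimethylsilylation derivatization, then GC/MS with EI ionization and multiple reaction monitoring on a BPX5 column. Serum came from blood held at room temperature and spun at 3500 rpm for 5 min.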

[8] = LC/MS of serum sample: time from blood collection to centrifugation (Table J)
Procedure: (§22) After standing, the blood sample was subjected to centrifugation under a condition of room temperature, 3500 rpm, and 5 minutes. […] After centrifugation, the blood-collecting vessel was left to stand at room temperature, and the serum was isolated during this time. Here, in order to investigate how the detection intensity of molecules contained in the sample was affected in cases where the time during which the blood-collecting vessel was left at room temperature was set to 1 hour and 6 hours as compared to that in a case where the time was set to 30 minutes, preparations were performed under the respective conditions of 30 minutes, 1 hour, and 6 hours. The obtained serum sample was frozen and stored. Here, in order to investigate how the detection intensity of molecules contained in the sample was affected in cases where freezing and thawing was performed 4 times, 6 times, and 10 times after freezing as compared to that in a case where freezing and thawing was performed 2 times after freezing, freezing and thawing was performed under the respective conditions of 2, 4, 6, and 10 times.
as §2, §3, §4, §5, §6, §7, §8, §9, §10, §11
The rate of increase or decrease in Table J is the value of detection intensity relative to 1 that is the detection intensity in a case where the time from blood collection to centrifugation is set to 15 minutes.

[9] = LC/MS of serum sample: number of times of freezing and thawing (Table M); parameters: key to Rate of increase or decrease: detection intensity relative to 1 at 2 freeze-thaw cycles
Procedure: as §22, §2, §3, §4, §5, §6, §7, §8, §9, §10, §11
The rate of increase or decrease in Table M is the value of detection intensity relative to 1 that is the detection intensity in a case where the number of times of freezing and thawing is set to 2 times.

[10] = detection intensity relative to 1 at 15 minutes, after 12 hours
[11] = freezing and thawing 6 times vs 2 times
[12] = freezing and thawing 10 times vs 2 times

SMILES: N[C@@H](CO)C(=O)O [Serine, serine]
Rate of increase or decrease ([8]; after 6 hours from blood collection to centrifugation, detection intensity relative to 1 at 15 minutes): 1.44 | Increase or decrease ([8]; serum sample, LC/MS, detection intensity vs 15 minutes from blood collection to centrifugation): Increase | Time when compound is affected ([8]; serum sample, LC/MS, time from blood collection to centrifugation, detection intensity changed by 30% or more vs 15 minutes): After 6 hours | Rate of increase or decrease ([9]; 6 times of freezing and thawing, detection intensity relative to 1 at 2 times): 0.66 | Number of times when compound is affected ([9]; serum sample, LC/MS, detection intensity changed by 30% or more vs 2 times of freezing and thawing): 6 times | Increase or decrease ([9]; serum sample, LC/MS, detection intensity vs 2 times of freezing and thawing): Decrease

SMILES: Nc1cc[nH]c(=O)n1 [Cytosine]
Rate of increase or decrease [3]: 1.50 | Increase or decrease [3]: Increase | Increase or decrease [4, 11]: Different from individual | Rate of increase or decrease (second value, decrease) [4]: 0.62 | Rate of increase or decrease (first value, increase) [4]: 1.93

SMILES: NC(=O)CC[C@H](N)C(=O)O [Glutamine]
Rate of increase or decrease ([2]; freezing and thawing 10 times): 1.34 | Increase or decrease [2, 12]: Increase

Further lines, results first:

Rate of increase or decrease [1, 10]: 1.44 | Increase or decrease ([1]; detection intensity, after 12 hours vs 15 minutes): Increase | Rate of increase or decrease ([2]; freezing and thawing 4 times): 1.52 | Increase or decrease ([2]; freezing and thawing 4 times vs 2 times): Increase
SMILES: N[C@@H](CCSC[C@H](N)C(=O)O)C(=O)O [Cystathionine]

Rate of increase or decrease [3]: 1.62 | Increase or decrease [3]: Increase | Increase or decrease [4, 11]: Different from individual | Rate of increase or decrease (second value, decrease) [4]: 0.68 | Rate of increase or decrease (first value, increase) [4]: 1.63 | Increase or decrease ([5]; after 4 hours vs 15 minutes): Increase | Rate of increase or decrease [6]: 2.08 | Increase or decrease [6]: Increase | Rate of increase or decrease ([7]; detection intensity relative to 1 at 2 times, freezing and thawing 6 times): 1.64 | Increase or decrease [7, 11]: Increase
SMILES: CCCCCCCCCCCCCCCCCCO [Octadecanol]

Rate of increase or decrease [3]: 0.60 | Increase or decrease [3]: Decrease | Rate of increase or decrease ([4]; detection intensity relative to 1 at 2 times, freezing and thawing 10 times): 1.88 | Increase or decrease [4, 12]: Increase | Rate of increase or decrease [5, 10]: 1.38 | Increase or decrease ([5]; after 12 hours vs 15 minutes): Increase | Rate of increase or decrease [6]: 1.36 | Increase or decrease [6]: Increase | Increase or decrease [7, 12]: Different from individual | Rate of increase or decrease (second value, decrease) ([7]; different from individual to individual, individuals with decrease, relative to 1 at 2 times, freezing and thawing 10 times): 0.70 | Rate of increase or decrease (first value, increase) ([7]; different from individual to individual, individuals with increase, relative to 1 at 2 times, freezing and thawing 10 times): 1.34
SMILES: CCCCCCCCCCCCCCCCO [1-Hexadecanol (cetanol), 1-Hexadecanol]
